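Step 1: Grow cells in 96-well plates. Step 2: Expose to compound for 48 hours at 5 concentrations. Step 3: Interpolate endpoints linearly; if unreached, use highest concentration. GI50 = concentration required for 50% inhibition of growth.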 Activity calls are given as the source filed them. No stated cut-off is given here; in the data, active = GI50 up to about 1.1 µM and inactive = higher.
What was measured:
Assay in all cases: DTP human tumour cell line panel, 48 h
BT-549 = tested on: BT-549
MOLT-4 = tested on: MOLT-4
CAKI-1 = tested on: CAKI-1
SK-OV-3 = tested on: SK-OV-3
SK-MEL-5 = tested on: SK-MEL-5
SR = tested on: SR
HCC 2998 = tested on: HCC 2998
UACC-257 = tested on: UACC-257
ACHN = tested on: ACHN
NCI-H522 = tested on: NCI-H522
NCI-H226 = tested on: NCI-H226
EKVX = tested on: EKVX
HOP-62 = tested on: HOP-62
SF-268 = tested on: SF-268
HCT-15 = tested on: HCT-15
RXF 393 = tested on: RXF 393
Hs-578T = tested on: Hs-578T
HL-60 = tested on: HL-60
HCT-116 = tested on: HCT-116
MCF7 = tested on: MCF7

SMILES | GI50 (BT-549) | GI50 (MOLT-4) | GI50 (CAKI-1) | GI50 (SK-OV-3) | GI50 (SK-MEL-5) | GI50 (SR) | GI50 (HCC 2998) | GI50 (UACC-257) | GI50 (ACHN) | GI50 (NCI-H522) | GI50 (NCI-H226) | GI50 (EKVX) | GI50 (HOP-62) | GI50 (SF-268) | GI50 (HCT-15) [µM] | GI50 (RXF 393) | GI50 (Hs-578T) | GI50 (HL-60) | GI50 (HCT-116) | GI50 (MCF7)
C/C(=N\O)c1ccc(Nc2c3ccccc3nc3occc23)cc1 | 0.366 µM (active) | 0.169 µM (active) | 0.231 µM (active) | 0.421 µM (active) | 0.222 µM (active) | 0.023 µM (active) | 0.316 µM (active) | 7.26 µM (inactive) | 0.302 µM (active) | 0.103 µM (active) | 2.99 µM (inactive) | 5.82 µM (inactive) | 0.436 µM (active) | 0.514 µM (active) | 0.126 | 0.0352 µM (active) | 0.352 µM (active) | 0.154 µM (active) | 0.185 µM (active) | 0.18 µM (active)
CNc1nc(N)nc(Nc2ccc(I)cc2)c1N=O | > 100 µM (inactive) | 78.5 µM (inactive) | – | – | 96.2 µM (inactive) | > 100 µM (inactive) | > 100 µM (inactive) | 85.3 µM (inactive) | > 100 µM (inactive) | 40 µM (inactive) | – | > 100 µM (inactive) | > 100 µM (inactive) | > 100 µM (inactive) | > 100 | 57.4 µM (inactive) | 39.1 µM (inactive) | 62.4 µM (inactive) | > 100 µM (inactive) | > 100 µM (inactive)
Cc1ccc(S(=O)(=O)NNC(=O)c2cc(C)c(C)cc2N)cc1 | > 100 µM (inactive) | 66.2 µM (inactive) | > 100 µM (inactive) | > 100 µM (inactive) | > 100 µM (inactive) | > 100 µM (inactive) | > 100 µM (inactive) | > 100 µM (inactive) | > 100 µM (inactive) | 47 µM (inactive) | > 100 µM (inactive) | > 100 µM (inactive) | > 100 µM (inactive) | – | > 100 | > 100 µM (inactive) | 84.1 µM (inactive) | > 100 µM (inactive) | > 100 µM (inactive) | > 100 µM (inactive)
Cc1cc(S(=O)(=O)Nc2nc3ccccc3n2-c2ccccc2)c(S)cc1Cl | > 100 µM (inactive) | > 100 µM (inactive) | > 100 µM (inactive) | – | 50.6 µM (inactive) | 69.7 µM (inactive) | > 100 µM (inactive) | > 100 µM (inactive) | > 100 µM (inactive) | > 100 µM (inactive) | > 100 µM (inactive) | > 100 µM (inactive) | – | > 100 µM (inactive) | > 100 | > 100 µM (inactive) | > 100 µM (inactive) | > 100 µM (inactive) | > 100 µM (inactive) | > 100 µM (inactive)
CN1c2c(O)nc(N)nc2NCC1CCNc1ccc(C(=O)NC(CCC(=O)O)C(=O)O)cc1 (stereo unspecified) | 1440 µM (inactive) | 33 µM (inactive) | 328 µM (inactive) | 678 µM (inactive) | 1120 µM (inactive) | 25.5 µM (inactive) | 993 µM (inactive) | 1030 µM (inactive) | 45.4 µM (inactive) | 423 µM (inactive) | 807 µM (inactive) | 1260 µM (inactive) | 467 µM (inactive) | 1110 µM (inactive) | 1430 | 1010 µM (inactive) | 2120 µM (inactive) | 48.1 µM (inactive) | 28.8 µM (inactive) | 324 µM (inactive)
CC(=O)O[C@H]1C(=O)[C@@]2(C)[C@H]([C@H](OC(=O)c3ccncc3)[C@]3(O)C[C@H](OC(=O)[C@H](O)[C@@H](NC(=O)c4ccccc4)c4ccccc4)C(C)=C1C3(C)C)[C@]1(OC(C)=O)CO[C@@H]1C[C@@H]2O | 14.5 µM (inactive) | 1.39 µM (inactive) | > 25 µM (inactive) | 14.2 µM (inactive) | 2.3 µM (inactive) | 1.09 µM (active) | 3.24 µM (inactive) | 8.3 µM (inactive) | > 22.3 µM (inactive) | 1.77 µM (inactive) | 16.1 µM (inactive) | > 25 µM (inactive) | > 12.4 µM (inactive) | > 11.6 µM (inactive) | > 25 | 7.01 µM (inactive) | 1.22 µM (inactive) | 0.471 µM (active) | 1.1 µM (active) | 0.918 µM (active)
O=[N+]([O-])C1(CO)COC2(OC1)c1ccccc1-c1ccccc12 | > 53.6 µM (inactive) | 53.2 µM (inactive) | > 100 µM (inactive) | > 100 µM (inactive) | > 100 µM (inactive) | 40.6 µM (inactive) | > 100 µM (inactive) | 79.8 µM (inactive) | > 81.3 µM (inactive) | 20 µM (inactive) | > 100 µM (inactive) | > 100 µM (inactive) | > 100 µM (inactive) | 52.8 µM (inactive) | 59.4 | > 55.2 µM (inactive) | > 100 µM (inactive) | 21.9 µM (inactive) | 35.3 µM (inactive) | 48 µM (inactive)
CC(=O)O[C@H]1CC[C@H]2[C@@H]3CCC4=C(C(=O)C=CC4(C)OC(C)=O)[C@H]3CC[C@]12C (stereo partly specified) | 26.2 µM (inactive) | 33.9 µM (inactive) | > 100 µM (inactive) | – | 47.9 µM (inactive) | 47.3 µM (inactive) | 38.3 µM (inactive) | > 100 µM (inactive) | 54 µM (inactive) | 45.8 µM (inactive) | > 100 µM (inactive) | > 100 µM (inactive) | > 100 µM (inactive) | 83.4 µM (inactive) | 64.3 | 32.1 µM (inactive) | > 100 µM (inactive) | 27.3 µM (inactive) | 33.2 µM (inactive) | 26.4 µM (inactive)
O=[N+]([O-])c1cccc2nc3ccccc3c(NCCN(CCO)CCO)c12 | 0.00308 µM (active) | – | 0.0064 µM (active) | 0.00989 µM (active) | 0.00192 µM (active) | 0.00123 µM (active) | 0.00235 µM (active) | – | 0.00361 µM (active) | 0.00116 µM (active) | 0.00102 µM (active) | 0.00731 µM (active) | 0.00282 µM (active) | 0.00423 µM (active) | 0.0108 | 0.00121 µM (active) | 0.00515 µM (active) | 0.0104 µM (active) | 0.00114 µM (active) | 0.00206 µM (active)
O=C1C=C2CO[C@H]3OC[C@H](O)[C@@H]1[C@@H]23 | 53.1 µM (inactive) | 28.9 µM (inactive) | 29 µM (inactive) | > 100 µM (inactive) | > 100 µM (inactive) | 22.6 µM (inactive) | 29 µM (inactive) | 29.8 µM (inactive) | > 100 µM (inactive) | 16.5 µM (inactive) | – | > 100 µM (inactive) | > 100 µM (inactive) | 36.2 µM (inactive) | 44 | 19.9 µM (inactive) | > 100 µM (inactive) | 23.6 µM (inactive) | 88.1 µM (inactive) | 43.2 µM (inactive)
Clc1cc(OC23CC4CC(CC(C4)C2)C3)nc(Cl)n1 | > 100 µM (inactive) | 34 µM (inactive) | 1.94 µM (inactive) | > 100 µM (inactive) | 38.8 µM (inactive) | 19.8 µM (inactive) | 12.9 µM (inactive) | 39 µM (inactive) | > 100 µM (inactive) | 90.2 µM (inactive) | – | 37.5 µM (inactive) | > 100 µM (inactive) | 69.8 µM (inactive) | 29.6 | 27.8 µM (inactive) | 22.8 µM (inactive) | 10 µM (inactive) | 46.3 µM (inactive) | 55.7 µM (inactive)
Cc1cccc(C)c1NC(=O)C(=O)C(c1ccccc1Cl)S(=O)(=O)Cc1ccccc1Cl (stereo unspecified) | 35.7 µM (inactive) | > 100 µM (inactive) | 39.3 µM (inactive) | > 29.4 µM (inactive) | > 100 µM (inactive) | > 100 µM (inactive) | > 100 µM (inactive) | > 100 µM (inactive) | 53.3 µM (inactive) | > 100 µM (inactive) | > 100 µM (inactive) | > 100 µM (inactive) | 18 µM (inactive) | 22.9 µM (inactive) | > 100 | 29.8 µM (inactive) | 41.4 µM (inactive) | 0.236 µM (active) | > 82.2 µM (inactive) | > 100 µM (inactive)
O=[N+]([O-])C[C@@]12O[C@]3(O)C4C5CC(C6C5C3C61)C42 (stereo partly specified) | > 100 µM (inactive) | > 100 µM (inactive) | > 100 µM (inactive) | > 100 µM (inactive) | > 100 µM (inactive) | 80.2 µM (inactive) | < 0.01 µM (active) | > 100 µM (inactive) | > 100 µM (inactive) | > 100 µM (inactive) | > 100 µM (inactive) | > 100 µM (inactive) | > 100 µM (inactive) | > 100 µM (inactive) | > 100 | > 100 µM (inactive) | > 100 µM (inactive) | > 100 µM (inactive) | > 100 µM (inactive) | > 100 µM (inactive)
c1ccc(CCN2CCN=C2Cc2ccccc2)cc1 | > 100 µM (inactive) | – | – | > 100 µM (inactive) | > 100 µM (inactive) | > 100 µM (inactive) | 21.3 µM (inactive) | > 100 µM (inactive) | > 100 µM (inactive) | > 100 µM (inactive) | > 100 µM (inactive) | > 100 µM (inactive) | > 100 µM (inactive) | > 100 µM (inactive) | > 100 | > 100 µM (inactive) | > 100 µM (inactive) | > 100 µM (inactive) | > 100 µM (inactive) | > 100 µM (inactive)
COc1ccc(-c2nnc3n(C)c4ccccc4n3c2=O)cc1 | 72.4 µM (inactive) | > 100 µM (inactive) | 76 µM (inactive) | – | > 100 µM (inactive) | > 100 µM (inactive) | > 100 µM (inactive) | > 100 µM (inactive) | 63 µM (inactive) | 77.8 µM (inactive) | > 100 µM (inactive) | > 100 µM (inactive) | 14.5 µM (inactive) | 29.6 µM (inactive) | > 100 | 31.1 µM (inactive) | 33 µM (inactive) | > 100 µM (inactive) | 48.6 µM (inactive) | > 100 µM (inactive)

— ChEMBL document CHEMBL1201862, “PubChem BioAssay data set” (2004)
